From ChEMBL document CHEMBL3885861, “Open TG-GATES”

Species on record: Rattus norvegicus
Assay: Open TG-GATES - Regimen: Daily Repeat
Type: toxicity, organism-based, Sprague-Dawley
Set-up: regimen Daily Repeat, gender Male, age 6 weeks
Details: in vivo, po, 300 mg/kg, route gavage, dose level Middle; for APTT / Bas / Eos / Fbg / Hb / Ht / Lym / MCH / MCHC / MCV / Mono / Neu / PT / Plat / RBC / Ret / WBC: tissue Blood; for KIDNEY_L / KIDNEY_R / KIDNEY_TOTAL: tissue Kidney; for LIVER: tissue Liver; for A/G / ALP / ALT / AST / BUN / CRE / Ca / Cl / DBIL / GLC / IP / K / LDH / Na / PL / RALB / TBIL / TC / TG / TP / gamma-GTP: tissue Plasma

Compound: CC(C)(S)[C@@H](N)C(=O)O [PENICILLAMINE]
- TERMINAL_BW (72 h, time 3 day): 235.2 g
- APTT (72 h, time 3 day): 17.2 s
- Bas (72 h, time 3 day): 0.4%
- Eos (72 h, time 3 day): 1%
- Fbg (72 h, time 3 day): 301.4 mg/dL
- Hb (72 h, time 3 day): 13.7 g/dL
- Ht (72 h, time 3 day): 42.2%
- Lym (72 h, time 3 day): 79.2%
- MCH (72 h, time 3 day): 20.9 pg
- MCHC (72 h, time 3 day): 32.6%
- MCV (72 h, time 3 day): 64.1 fL
- Mono (72 h, time 3 day): 3.2%
- Neu (72 h, time 3 day): 15.4%
- PT (72 h, time 3 day): 14.1 s
- Plat (72 h, time 3 day): 114.9 x10_4/uL
- RBC (72 h, time 3 day): 658.6 x10_4/ul
- Ret (72 h, time 3 day): 7.6%
- WBC (72 h, time 3 day): 91.9 x10_2/uL
- KIDNEY_L (72 h, time 3 day): 1 g
- KIDNEY_R (72 h, time 3 day): 1 g
- KIDNEY_TOTAL (72 h, time 3 day): 2 g
- LIVER (72 h, time 3 day): 11.1 g
- A/G (72 h, time 3 day): 0.9
- ALP (72 h, time 3 day): 1461.8 IU/L
- ALT (72 h, time 3 day): 40.4 IU/L
- AST (72 h, time 3 day): 66.2 IU/L
- BUN (72 h, time 3 day): 14.4 mg/dL
- CRE (72 h, time 3 day): 0.2 mg/dL
- Ca (72 h, time 3 day): 11 mg/dL
- Cl (72 h, time 3 day): 106.6 meq/L
- DBIL (72 h, time 3 day): 0.012 mg/dL
- GLC (72 h, time 3 day): 181.6 mg/dL
- IP (72 h, time 3 day): 7.2 mg/dL
- K (72 h, time 3 day): 4 meq/L
- LDH (72 h, time 3 day): 102 IU/L
- Na (72 h, time 3 day): 144.6 meq/L
- PL (72 h, time 3 day): 159.2 mg/dL
- RALB (72 h, time 3 day): 2.8 g/dL
- TBIL (72 h, time 3 day): 0.028 mg/dL
- TC (72 h, time 3 day): 81.2 mg/dL
- TG (72 h, time 3 day): 102.8 mg/dL
- TP (72 h, time 3 day): 5.8 g/dL
- gamma-GTP (72 h, time 3 day): 1 IU/L
- TERMINAL_BW ([…], time 7 day): 273.3 g
- TERMINAL_BW ([…], time 14 day): 321.5 g
- TERMINAL_BW ([…], time 28 day): 390 g
- APTT ([…], time 7 day): 16.6 s
- Bas ([…], time 7 day): 0%
- Eos ([…], time 7 day): 1.4%
- Fbg ([…], time 7 day): 377.6 mg/dL
- Hb ([…], time 7 day): 13.4 g/dL
- Ht ([…], time 7 day): 40.7%
- Lym ([…], time 7 day): 75.4%
- MCH ([…], time 7 day): 20.6 pg
- MCHC ([…], time 7 day): 33.1%
- MCV ([…], time 7 day): 62.4 fL
- Mono ([…], time 7 day): 3.6%
- Neu ([…], time 7 day): 18.8%
- PT ([…], time 7 day): 14 s
- Plat ([…], time 7 day): 122.4 x10_4/uL
- RBC ([…], time 7 day): 652.2 x10_4/ul
- Ret ([…], time 7 day): 5.9%
- WBC ([…], time 7 day): 96 x10_2/uL
- APTT ([…], time 14 day): 23.3 s
- Bas ([…], time 14 day): 0.2%
- Eos ([…], time 14 day): 1%
- Fbg ([…], time 14 day): 375.6 mg/dL
- Hb ([…], time 14 day): 14.7 g/dL
- Ht ([…], time 14 day): 43.5%
- Lym ([…], time 14 day): 81.2%
- MCH ([…], time 14 day): 20.2 pg
- MCHC ([…], time 14 day): 33.8%
- MCV ([…], time 14 day): 59.8 fL
- Mono ([…], time 14 day): 2.2%
- Neu ([…], time 14 day): 15.2%
- PT ([…], time 14 day): 14.3 s
- Plat ([…], time 14 day): 133 x10_4/uL
- RBC ([…], time 14 day): 727 x10_4/ul
- Ret ([…], time 14 day): 5.2%
- WBC ([…], time 14 day): 103.7 x10_2/uL
- APTT ([…], time 28 day): 17.4 s
- Bas ([…], time 28 day): 0.4%
- Eos ([…], time 28 day): 1.2%
- Fbg ([…], time 28 day): 485.2 mg/dL
- Hb ([…], time 28 day): 14.4 g/dL
- Ht ([…], time 28 day): 42.7%
- Lym ([…], time 28 day): 78%
- MCH ([…], time 28 day): 18.7 pg
- MCHC ([…], time 28 day): 33.8%
- MCV ([…], time 28 day): 55.4 fL
- Mono ([…], time 28 day): 2.6%
- Neu ([…], time 28 day): 17.2%
- PT ([…], time 28 day): 14.7 s
- Plat ([…], time 28 day): 132.7 x10_4/uL
- RBC ([…], time 28 day): 770 x10_4/ul
- Ret ([…], time 28 day): 3.1%
- WBC ([…], time 28 day): 131.5 x10_2/uL
- KIDNEY_L ([…], time 7 day): 1.2 g
- KIDNEY_R ([…], time 7 day): 1.1 g
- KIDNEY_TOTAL ([…], time 7 day): 2.3 g
- KIDNEY_L ([…], time 14 day): 1.2 g
- KIDNEY_R ([…], time 14 day): 1.3 g
- KIDNEY_TOTAL ([…], time 14 day): 2.5 g
- KIDNEY_L ([…], time 28 day): 1.4 g
- KIDNEY_R ([…], time 28 day): 1.4 g
- KIDNEY_TOTAL ([…], time 28 day): 2.9 g
- LIVER ([…], time 7 day): 12.2 g
- LIVER ([…], time 14 day): 13.6 g
- LIVER ([…], time 28 day): 15.6 g
- A/G ([…], time 7 day): 0.9
- ALP ([…], time 7 day): 1362.2 IU/L
- ALT ([…], time 7 day): 38.6 IU/L
- AST ([…], time 7 day): 61 IU/L
- BUN ([…], time 7 day): 15.6 mg/dL
- CRE ([…], time 7 day): 0.2 mg/dL
- Ca ([…], time 7 day): 10.8 mg/dL
- Cl ([…], time 7 day): 103.8 meq/L
- DBIL ([…], time 7 day): 0.012 mg/dL
- GLC ([…], time 7 day): 189.4 mg/dL
- IP ([…], time 7 day): 7.2 mg/dL
- K ([…], time 7 day): 4 meq/L
- LDH ([…], time 7 day): 67.4 IU/L
- Na ([…], time 7 day): 141.6 meq/L
- PL ([…], time 7 day): 164.8 mg/dL
- RALB ([…], time 7 day): 2.7 g/dL
- TBIL ([…], time 7 day): 0.034 mg/dL
- TC ([…], time 7 day): 85.4 mg/dL
- TG ([…], time 7 day): 113.4 mg/dL
- TP ([…], time 7 day): 5.7 g/dL
- gamma-GTP ([…], time 7 day): 1 IU/L
- A/G ([…], time 14 day): 0.9
- ALP ([…], time 14 day): 1395 IU/L
- ALT ([…], time 14 day): 41.8 IU/L
- AST ([…], time 14 day): 64.2 IU/L
- BUN ([…], time 14 day): 15.4 mg/dL
- CRE ([…], time 14 day): 0.2 mg/dL
- Ca ([…], time 14 day): 10.9 mg/dL
- Cl ([…], time 14 day): 105 meq/L
- DBIL ([…], time 14 day): 0.008 mg/dL
- GLC ([…], time 14 day): 176.4 mg/dL
- IP ([…], time 14 day): 7.2 mg/dL
- K ([…], time 14 day): 3.9 meq/L
- LDH ([…], time 14 day): 100.2 IU/L
- Na ([…], time 14 day): 142.8 meq/L
- PL ([…], time 14 day): 160.2 mg/dL
- RALB ([…], time 14 day): 2.8 g/dL
- TBIL ([…], time 14 day): 0.04 mg/dL
- TC ([…], time 14 day): 80.4 mg/dL
- TG ([…], time 14 day): 119.2 mg/dL
- TP ([…], time 14 day): 6 g/dL
- gamma-GTP ([…], time 14 day): 1 IU/L
- A/G ([…], time 28 day): 0.9
- ALP ([…], time 28 day): 911.4 IU/L
- ALT ([…], time 28 day): 33.8 IU/L
- AST ([…], time 28 day): 56.8 IU/L
- BUN ([…], time 28 day): 14.8 mg/dL
- CRE ([…], time 28 day): 0.2 mg/dL
- Ca ([…], time 28 day): 10.8 mg/dL
- Cl ([…], time 28 day): 105.6 meq/L
- DBIL ([…], time 28 day): 0.008 mg/dL
- GLC ([…], time 28 day): 186.8 mg/dL
- IP ([…], time 28 day): 6.2 mg/dL
- K ([…], time 28 day): 3.6 meq/L
- LDH ([…], time 28 day): 60.6 IU/L
- Na ([…], time 28 day): 144 meq/L
- PL ([…], time 28 day): 147 mg/dL
- RALB ([…], time 28 day): 2.8 g/dL
- TBIL ([…], time 28 day): 0.072 mg/dL
- TC ([…], time 28 day): 77 mg/dL
- TG ([…], time 28 day): 87.8 mg/dL
- TP ([…], time 28 day): 6.1 g/dL
- gamma-GTP ([…], time 28 day): 1 IU/L
